{
  "source": "patent US8664210B2",
  "about": "“Aminooxime derivatives of 2- and/or 4-substituted androstanes and androstenes as medicaments for cardiovascular disorders” (priority 2007, dated 2014)",
  "key": {"[1]": {"biological_target": "Dog Kidney Na+, K+-ATPase (Canis lupus familiaris, UniProt P50997)", "test": "Dog kidney Na+,K+-ATPase inhibition (hydrolysis of 32P-ATP)", "assay_type": "biochemical"}, "[2]": {"tested_on": "anesthetized guinea-pig", "test": "inotropic effect and lethal dose in anesthetized guinea-pig (infusion over 90 minutes)", "assay_type": "in vivo", "conditions": "anesthetized guinea-pig, infusion over 90 min", "experimental": "The inotropic activity is shown as maximum increase in contractile force (Emax measured as +dP/dTmax), dose inducing maximum positive inotropic effect (EDmax), inotropic potency (ED80, dose increasing +dP/dTmax by 80%); the toxicity as the ratio between lethal dose and inotropic potency (calculated in the died animals). All animals, previously anesthetized, were administered the drug through infusion over a 90 minute period."}, "[3]": {"biological_target": "Na+,K+-ATPase (Canis lupus familiaris, UniProt P50997)", "conditions": "relative to compound 22b; cited from earlier work"}},
  "data": [
    {"smiles": "C[C@@H]1/C(=N/OCCN)CC[C@@]2(C)C1C(=O)C[C@@H]1[C@@H]2CC[C@]2(C)C(=O)CC[C@@H]12.Cl", "note": "(stereo partly drawn) [Compd. 22d, (E)-3-(2-aminoethoxyimino)-4α-methylandrostan-6,17-dione hydrochloride]", "values": [
      {"measurement": "IC50", "setting": "[1]", "result": 6, "unit": "µM"},
      {"measurement": "Dead/treated", "setting": "[2]", "result": "0/3"},
      {"measurement": "ED80 (inotropic potency, dose increasing +dP/dTmax by 80%)", "setting": "[2]", "result": 23.0, "unit": "µmol/kg"},
      {"measurement": "EDmax (dose inducing maximum positive inotropic effect)", "setting": "[2]", "result": 149, "unit": "µmol/kg"},
      {"measurement": "Emax % increase in +dP/dTmax (maximum increase in contractile force)", "setting": "[2]", "result": 190, "unit": "%"},
      {"measurement": "Maximum dose infused", "setting": "[2]", "result": 250.3, "unit": "µmol/kg"},
      {"measurement": "Notes (toxic signs during infusion)", "setting": "[2]; hydrochloride", "result": "tremors and contractions appeared during the infusion"},
      {"measurement": "times less active than des-methyl compound 22b", "setting": "[3]", "result": 30}
    ]}
  ]
}
